Measured values as given in PMC4581874 (PLoS ONE, 2015).
“Also recorded” adds a separate entry of the source.

Tests used:
EGFR = EGFR (Homo sapiens, UniProt P00533); assay: In vitro kinase assay, EGFR; assay type: biochemical; conditions: for inhibition at 1 µM: mean ± S.D., read-out: % inhibition at 1 μM, EGFR(h); for IC50: in vitro kinase assay, mean values
Protocol: All kinase assays were carried out using KinaseProfiler^TM and IC50 Profiler^TM (Millipore UK Ltd., Dundee, UK. Now Eurofins Scientific, Dundee, UK). All IC50 data were presented as the mean values.

EGFR (L858R) = biological target: T1, EGFR (L858R) (Homo sapiens, UniProt P00533, L858R); assay: In vitro kinase assay, EGFR (L858R); assay type: biochemical; conditions: 1 μM, mean ± S.D.; read-out: % inhibition at 1 μM, EGFR(L858R)(h)
T1 construct: purchased Millipore UK Ltd., Dundee, UK (now Eurofins Scientific); KinaseProfiler / IC50 Profiler service
Protocol: (§1) All kinase assays were carried out using KinaseProfiler^TM and IC50 Profiler^TM (Millipore UK Ltd., Dundee, UK. Now Eurofins Scientific, Dundee, UK). All IC50 data were presented as the mean values. The Curves obtained to determine IC50 values were shown in Supporting Information (S1 Fig).

FGFR1 = biological target: T2, FGFR1 (Homo sapiens, UniProt P11362); assay: In vitro kinase assay, FGFR1; assay type: biochemical; conditions: 1 μM, mean ± S.D.; read-out: % inhibition at 1 μM, FGFR1 (h)
T2 construct: purchased Millipore UK Ltd., Dundee, UK (now Eurofins Scientific); KinaseProfiler / IC50 Profiler service
T2 sequence (P11362 22-822): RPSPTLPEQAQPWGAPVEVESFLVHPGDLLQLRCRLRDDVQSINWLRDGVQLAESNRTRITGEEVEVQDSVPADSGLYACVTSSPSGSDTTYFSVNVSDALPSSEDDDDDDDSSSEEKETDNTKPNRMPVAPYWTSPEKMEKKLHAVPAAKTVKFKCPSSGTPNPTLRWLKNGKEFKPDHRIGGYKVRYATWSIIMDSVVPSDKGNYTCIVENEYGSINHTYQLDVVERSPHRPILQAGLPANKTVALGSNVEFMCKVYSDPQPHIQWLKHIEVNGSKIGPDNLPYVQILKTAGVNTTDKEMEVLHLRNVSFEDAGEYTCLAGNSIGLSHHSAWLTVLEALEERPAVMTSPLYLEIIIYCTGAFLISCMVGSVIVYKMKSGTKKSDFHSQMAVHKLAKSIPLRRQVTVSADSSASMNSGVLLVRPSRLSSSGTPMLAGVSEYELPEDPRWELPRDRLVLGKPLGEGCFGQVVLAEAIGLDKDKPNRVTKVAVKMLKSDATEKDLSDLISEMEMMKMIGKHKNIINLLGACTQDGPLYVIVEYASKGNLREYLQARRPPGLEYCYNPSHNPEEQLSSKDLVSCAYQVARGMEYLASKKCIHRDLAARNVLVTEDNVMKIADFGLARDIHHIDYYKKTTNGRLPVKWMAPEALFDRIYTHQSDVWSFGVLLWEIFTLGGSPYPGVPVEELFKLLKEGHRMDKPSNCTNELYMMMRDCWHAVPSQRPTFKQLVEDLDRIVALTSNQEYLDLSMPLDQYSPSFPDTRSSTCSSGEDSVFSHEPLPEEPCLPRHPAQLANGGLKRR
Protocol: as §1

FGFR3 = biological target: T3, FGFR3 (Homo sapiens, UniProt P22607); assay: In vitro kinase assay, FGFR3; assay type: biochemical; conditions: 1 μM, mean ± S.D.; read-out: % inhibition at 1 μM, FGFR3 (h)
T3 construct: purchased Millipore UK Ltd., Dundee, UK (now Eurofins Scientific); KinaseProfiler / IC50 Profiler service
Protocol: as §1

VEGFR-1 = biological target: T4, VEGFR-1 (Homo sapiens, UniProt P17948); assay: In vitro kinase assay, VEGFR-1; assay type: biochemical; conditions: 1 μM, mean ± S.D.; read-out: % inhibition at 1 μM, VEGFR-1 (h)
T4 construct: purchased Millipore UK Ltd., Dundee, UK (now Eurofins Scientific); KinaseProfiler / IC50 Profiler service
T4 sequence (P17948 27-1338): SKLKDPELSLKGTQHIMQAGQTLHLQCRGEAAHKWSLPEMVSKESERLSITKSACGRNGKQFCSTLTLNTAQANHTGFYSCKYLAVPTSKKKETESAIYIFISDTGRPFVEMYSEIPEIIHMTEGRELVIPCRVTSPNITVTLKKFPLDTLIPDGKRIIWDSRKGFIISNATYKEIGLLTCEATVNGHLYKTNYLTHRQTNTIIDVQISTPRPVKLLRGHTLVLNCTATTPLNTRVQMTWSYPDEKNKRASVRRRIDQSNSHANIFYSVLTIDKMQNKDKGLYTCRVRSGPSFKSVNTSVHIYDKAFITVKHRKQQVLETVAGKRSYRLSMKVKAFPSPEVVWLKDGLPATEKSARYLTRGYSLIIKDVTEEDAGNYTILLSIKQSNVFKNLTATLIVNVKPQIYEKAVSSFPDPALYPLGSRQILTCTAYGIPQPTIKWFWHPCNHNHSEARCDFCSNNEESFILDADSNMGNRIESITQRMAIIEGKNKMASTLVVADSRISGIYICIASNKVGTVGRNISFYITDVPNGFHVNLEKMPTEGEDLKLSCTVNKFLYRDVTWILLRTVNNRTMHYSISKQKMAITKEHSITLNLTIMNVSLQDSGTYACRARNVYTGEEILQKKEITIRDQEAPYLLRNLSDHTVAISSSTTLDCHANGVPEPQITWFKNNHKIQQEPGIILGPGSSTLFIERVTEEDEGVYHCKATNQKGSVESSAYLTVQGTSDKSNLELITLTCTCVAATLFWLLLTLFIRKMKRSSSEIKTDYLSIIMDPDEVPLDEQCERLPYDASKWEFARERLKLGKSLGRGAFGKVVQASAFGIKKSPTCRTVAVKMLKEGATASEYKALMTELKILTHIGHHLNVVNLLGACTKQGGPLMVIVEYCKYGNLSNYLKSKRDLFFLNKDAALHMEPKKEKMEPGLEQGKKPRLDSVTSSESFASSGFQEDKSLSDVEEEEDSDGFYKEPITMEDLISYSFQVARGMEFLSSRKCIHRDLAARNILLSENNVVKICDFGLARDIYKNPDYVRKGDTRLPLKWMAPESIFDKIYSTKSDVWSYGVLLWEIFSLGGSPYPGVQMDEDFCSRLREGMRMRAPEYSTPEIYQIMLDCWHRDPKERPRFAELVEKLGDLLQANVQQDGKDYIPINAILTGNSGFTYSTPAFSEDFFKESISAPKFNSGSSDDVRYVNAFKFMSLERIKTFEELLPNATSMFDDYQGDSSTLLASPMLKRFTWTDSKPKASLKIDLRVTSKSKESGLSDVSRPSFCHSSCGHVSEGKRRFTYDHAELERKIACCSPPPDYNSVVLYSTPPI
Protocol: as §1

VEGFR-2 = biological target: T5, VEGFR-2 (Homo sapiens, UniProt P35968); assay: In vitro kinase assay, VEGFR-2; assay type: biochemical; conditions: for inhibition at 1 µM: mean ± S.D., read-out: % inhibition at 1 μM, VEGFR-2 (h); for IC50: in vitro kinase assay
T5 construct: purchased Millipore UK Ltd., Dundee, UK (now Eurofins Scientific); KinaseProfiler / IC50 Profiler service
T5 sequence (P35968 20-1356): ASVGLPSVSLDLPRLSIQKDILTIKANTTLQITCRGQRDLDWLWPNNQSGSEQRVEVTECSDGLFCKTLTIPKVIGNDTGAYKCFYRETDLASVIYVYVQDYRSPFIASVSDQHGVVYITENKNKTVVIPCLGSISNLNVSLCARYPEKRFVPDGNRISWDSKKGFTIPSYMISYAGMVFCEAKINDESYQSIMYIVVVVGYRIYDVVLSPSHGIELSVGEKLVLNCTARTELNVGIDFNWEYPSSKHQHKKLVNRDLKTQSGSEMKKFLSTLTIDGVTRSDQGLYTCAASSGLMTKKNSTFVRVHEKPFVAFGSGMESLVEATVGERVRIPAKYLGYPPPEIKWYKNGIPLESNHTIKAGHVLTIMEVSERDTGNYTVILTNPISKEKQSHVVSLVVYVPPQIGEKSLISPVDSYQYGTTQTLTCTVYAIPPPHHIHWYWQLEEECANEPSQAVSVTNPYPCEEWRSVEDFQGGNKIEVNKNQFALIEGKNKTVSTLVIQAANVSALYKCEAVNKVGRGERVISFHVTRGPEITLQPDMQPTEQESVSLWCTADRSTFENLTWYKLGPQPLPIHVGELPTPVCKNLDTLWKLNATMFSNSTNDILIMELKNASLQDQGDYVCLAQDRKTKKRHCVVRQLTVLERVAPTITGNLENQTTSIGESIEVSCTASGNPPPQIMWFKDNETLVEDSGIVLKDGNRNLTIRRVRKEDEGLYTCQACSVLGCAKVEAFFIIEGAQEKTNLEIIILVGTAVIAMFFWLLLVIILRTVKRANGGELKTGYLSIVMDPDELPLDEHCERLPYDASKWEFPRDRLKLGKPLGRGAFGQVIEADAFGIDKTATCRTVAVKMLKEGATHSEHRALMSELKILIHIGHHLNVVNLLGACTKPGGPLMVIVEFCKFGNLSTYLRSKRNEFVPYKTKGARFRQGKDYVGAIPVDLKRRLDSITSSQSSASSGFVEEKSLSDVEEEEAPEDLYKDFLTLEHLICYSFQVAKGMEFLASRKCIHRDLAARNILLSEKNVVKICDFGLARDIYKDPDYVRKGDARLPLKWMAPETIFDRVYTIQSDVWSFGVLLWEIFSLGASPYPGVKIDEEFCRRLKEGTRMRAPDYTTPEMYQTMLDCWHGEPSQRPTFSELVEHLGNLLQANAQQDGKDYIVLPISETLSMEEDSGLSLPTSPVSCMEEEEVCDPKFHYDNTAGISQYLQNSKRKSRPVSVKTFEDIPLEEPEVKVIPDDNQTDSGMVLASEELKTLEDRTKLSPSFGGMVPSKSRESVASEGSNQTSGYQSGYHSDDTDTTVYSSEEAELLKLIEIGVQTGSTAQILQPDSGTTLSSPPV
Protocol: as §1

VEGFR-3 = biological target: T6, VEGFR-3 (Homo sapiens, UniProt P35916); assay: In vitro kinase assay, VEGFR-3; assay type: biochemical; conditions: 1 μM, mean ± S.D.; read-out: % inhibition at 1 μM, VEGFR-3 (h)
T6 construct: purchased Millipore UK Ltd., Dundee, UK (now Eurofins Scientific); KinaseProfiler / IC50 Profiler service
Protocol: as §1

PDGFRα = biological target: T7, PDGFRα (Homo sapiens, UniProt P16234); assay: In vitro kinase assay, PDGFRα; assay type: biochemical; conditions: 1 μM, mean ± S.D.; read-out: % inhibition at 1 μM, PDGFRα (h)
T7 construct: purchased Millipore UK Ltd., Dundee, UK (now Eurofins Scientific); KinaseProfiler / IC50 Profiler service
Protocol: as §1

PDGFRβ = biological target: T8, PDGFRβ (Homo sapiens, UniProt P09619); assay: In vitro kinase assay, PDGFRβ; assay type: biochemical; conditions: 1 μM, mean ± S.D.; read-out: % inhibition at 1 μM, PDGFRβ (h)
T8 construct: purchased Millipore UK Ltd., Dundee, UK (now Eurofins Scientific); KinaseProfiler / IC50 Profiler service
T8 sequence (P09619 33-1106): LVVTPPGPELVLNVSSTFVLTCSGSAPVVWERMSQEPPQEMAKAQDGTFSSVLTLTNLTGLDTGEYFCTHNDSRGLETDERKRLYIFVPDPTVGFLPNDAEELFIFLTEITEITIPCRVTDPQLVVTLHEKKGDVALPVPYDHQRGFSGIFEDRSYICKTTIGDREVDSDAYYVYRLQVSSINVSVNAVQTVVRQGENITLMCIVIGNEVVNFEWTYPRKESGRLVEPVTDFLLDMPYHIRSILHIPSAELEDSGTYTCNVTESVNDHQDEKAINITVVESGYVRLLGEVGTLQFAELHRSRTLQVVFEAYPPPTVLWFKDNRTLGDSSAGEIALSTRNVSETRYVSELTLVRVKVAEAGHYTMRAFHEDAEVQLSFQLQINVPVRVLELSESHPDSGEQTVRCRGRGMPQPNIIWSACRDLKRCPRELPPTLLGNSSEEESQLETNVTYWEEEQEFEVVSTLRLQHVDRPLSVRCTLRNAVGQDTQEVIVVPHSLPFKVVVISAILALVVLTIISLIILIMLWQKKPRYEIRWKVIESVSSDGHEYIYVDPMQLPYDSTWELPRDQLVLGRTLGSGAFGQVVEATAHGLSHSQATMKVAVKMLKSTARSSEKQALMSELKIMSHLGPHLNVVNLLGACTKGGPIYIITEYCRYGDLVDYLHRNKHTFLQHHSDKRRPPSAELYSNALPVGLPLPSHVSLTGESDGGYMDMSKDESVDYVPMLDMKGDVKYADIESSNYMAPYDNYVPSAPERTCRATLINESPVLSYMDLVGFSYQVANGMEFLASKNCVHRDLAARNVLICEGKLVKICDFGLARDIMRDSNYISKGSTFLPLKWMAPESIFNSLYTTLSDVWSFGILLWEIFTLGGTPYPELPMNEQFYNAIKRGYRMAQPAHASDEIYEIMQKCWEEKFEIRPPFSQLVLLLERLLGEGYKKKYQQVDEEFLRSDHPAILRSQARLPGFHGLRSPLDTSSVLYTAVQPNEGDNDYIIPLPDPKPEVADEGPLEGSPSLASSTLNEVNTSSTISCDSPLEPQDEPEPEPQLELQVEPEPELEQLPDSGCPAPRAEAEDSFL
Protocol: as §1

cKit = biological target: T9, cKit (Homo sapiens, UniProt P10721); assay: In vitro kinase assay, cKit; assay type: biochemical; conditions: 1 μM, mean ± S.D.; read-out: % inhibition at 1 μM, cKit(h)
T9 construct: purchased Millipore UK Ltd., Dundee, UK (now Eurofins Scientific); KinaseProfiler / IC50 Profiler service
Protocol: as §1

HCC827 cells = assay: HCC827 cell viability assay; assay type: cell-based; conditions: Homo sapiens, 72 h, read-out: HCC827 IC50 (anti-proliferative activity)
Protocol: HCC827 cells were purchased from the American Type Culture Collection (ATCC, Manassas, VA, USA). […] Human umbilical vein endothelial cells (HUVECs, ScienCell Research Laboratories, Carlsbad, CA, USA) were cultured in endothelial growth medium-2 (EGM-2; Lonza, Walkersville, MD, USA) from passages 3 to 6.
After a 24-hour incubation, the cells were treated with a series of test compound dilutions for 72 hours. Cell viability was assessed using EZ-Cytox (Daeil Lab Service, Seoul, South Korea) according to the manufacturer’s instructions.
Cells were incubated for 72 h with a range of concentrations of MKP101, and cell viability was measured using the WST-1 assay. […] Western blot analysis using antibodies to phosphorylated and total EGFR from a representative experiment is shown. Cells were incubated for 3 h at the indicated concentration. (C) Graph showing the relative intensities of the total and phosphorylated EGFR as determined by band densitometry. IC50, half-maximal inhibitory concentration.

HUVECs [1] = assay: HUVEC viability assay (cytotoxicity); assay type: cell-based, human; conditions: 24 hours
Protocol: HCC827 cells were purchased from the American Type Culture Collection (ATCC, Manassas, VA, USA). Cells were grown in RPMI 1640 (Welgene Inc., Daegu, Republic of Korea) supplemented with 10% fetal bovine serum (FBS) (Welgene Inc.) and 1% penicillin-streptomycin (Gibco®, Life Technologies, Carlsbad, CA, USA) in a humidified 5% CO2 atmosphere at 37°C. Human umbilical vein endothelial cells (HUVECs, ScienCell Research Laboratories, Carlsbad, CA, USA) were cultured in endothelial growth medium-2 (EGM-2; Lonza, Walkersville, MD, USA) from passages 3 to 6.
For the HUVEC viability assay, HUVECs were treated with phosphate-buffered saline (PBS) or the indicated concentrations of VEGF inhibitors in EGM-2 medium for 24 hours. After the cells were washed with PBS, they were counted using an inverted light microscope (Nikon Eclipse Ti-U; Nikon Corp., Tokyo, Japan) in 5 random fields from each well.

HUVECs [2] = assay: VEGF-induced tube formation assay; assay type: cell-based, human; conditions: VEGF 50 ng/mL, compound 1 μg/mL
Protocol: For analyzing of the antagonistic response to VEGF, tube formation, scratch wound migration, and cell proliferation assays were performed after the exposure of HUVECs to 50 ng/mL VEGF-A (R&D Systems, Minneapolis, MN), which induced a significant angiogenic response. For the cell proliferation assays, cells were incubated overnight in endothelial basal media (EBM; Lonza, Walkersville, MD, USA) containing 0.5% FBS or supplemented with VEGF-A and/or VEGF inhibitors. The cells were washed with PBS and counted in 4 random microscope fields. The tube formation assay was performed by seeding cells on Matrigel-coated plates (BD Bioscience, Bedford, MA, USA) and incubating in EBM containing 0.5% FBS or supplemented with VEGF-A and/or VEGF inhibitors. After overnight incubation, tubule networks were quantified by measuring the tubule length in 4 random microscope fields. For the analysis of scratch wound migration, confluent cell monolayers grown on 6-well plates were scratched using a micropipette tip. […] Cell migration was observed by optical microscopy and quantified by measuring the number of cells that had migrated from the wound edges.
In (A) and (B), the number of cells was expressed as the fold change with respect to the number of cells seeded at day 0. […]

inhibition at 1 µM (EGFR) [%] | IC50 (EGFR) [nM] | IC50 (VEGFR-2) [nM] | Structure (SMILES) | also measured
94 ± 2 | 31 | 30 | COc1ccc(Nc2cc(Oc3ccc4[nH]ccc4c3)ncn2)cc1N1CCOCC1 [MKP121] | inhibition at 1 µM (EGFR (L858R)): 98%; inhibition at 1 µM (FGFR1): 29 ± 5%; inhibition at 1 µM (FGFR3): 13 ± 4%; inhibition at 1 µM (VEGFR-1): 99 ± 2%; inhibition at 1 µM (VEGFR-2): 96%; inhibition at 1 µM (VEGFR-3): 98%; inhibition at 1 µM (PDGFRα): 37 ± 1%; inhibition at 1 µM (PDGFRβ): 48%; inhibition at 1 µM (cKit): 70 ± 3%
– | 10100 | 360 | CN(c1ccc2c(ccn2C)c1)c1ccnc(Nc2ccc(N3CCOCC3)cc2)n1 [MKP112] | –
– | 180 | 30 | c1cc(Nc2nccc(Nc3ccc4[nH]ccc4c3)n2)cc(N2CCOCC2)c1 [MKP110] | –
47 ± 2 | – | – | Cc1ccc(Nc2nccc(N(C)c3ccc4cc[nH]c4c3)n2)cc1S(N)(=O)=O [MKP105] | IC50 (HCC827 cells): 1460 nM
– | 240 | 50 | c1cc(Nc2ccc3[nH]ccc3c2)nc(Nc2ccc(N3CCOCC3)cc2)n1 [MKP109] | –
– | 41 | 20 | COc1cc(Nc2nccc(Nc3ccc4[nH]ccc4c3)n2)cc(N2CCOCC2)c1 [MKP116] | –
35 ± 2 | 2040 | 20 | Cc1ccc(Nc2nccc(Oc3ccc4[nH]ccc4c3)n2)cc1S(N)(=O)=O [MKP122] | inhibition at 1 µM (EGFR (L858R)): 66%; inhibition at 1 µM (FGFR1): 83%; inhibition at 1 µM (FGFR3): 65 ± 4%; inhibition at 1 µM (VEGFR-1): 100%; inhibition at 1 µM (VEGFR-2): 96%; inhibition at 1 µM (VEGFR-3): 100%; inhibition at 1 µM (PDGFRα): 87 ± 1%; inhibition at 1 µM (PDGFRβ): 92%; inhibition at 1 µM (cKit): 99 ± 1%
– | 56 | 10 | COc1ccc(Nc2nccc(Nc3ccc4[nH]ccc4c3)n2)cc1N1CCOCC1 [MKP115] | –
100 | 18 | 45 | Cc1ccc(Nc2cc(Oc3ccc4[nH]ccc4c3)ncn2)cc1S(N)(=O)=O [MKP123] | inhibition at 1 µM (EGFR (L858R)): 99 ± 1%; inhibition at 1 µM (FGFR1): 20 ± 6%; inhibition at 1 µM (FGFR3): 21 ± 2%; inhibition at 1 µM (VEGFR-1): 99 ± 1%; inhibition at 1 µM (VEGFR-2): 97%; inhibition at 1 µM (VEGFR-3): 100%; inhibition at 1 µM (PDGFRα): 30 ± 3%; inhibition at 1 µM (PDGFRβ): 44 ± 3%; inhibition at 1 µM (cKit): 53 ± 9%
– | 178 | 130 | c1cc(Nc2ccc3[nH]ccc3c2)nc(Nc2ccc(OCCCCN3CCOCC3)cc2)n1 [MKP107] | –
– | 2240 | 1570 | Cn1ccc2cc(Nc3ccnc(Nc4ccc(N5CCOCC5)cc4)n3)ccc21 [MKP111] | –
– | 210 | 20 | c1cc(Nc2ccc3[nH]ccc3c2)nc(Nc2ccc(OCCN3CCOCC3)cc2)n1 [MKP106] | –
93 ± 2 | 55 | – | Cc1ccc(Nc2nccc(N(C)c3ccc4[nH]cc(C)c4c3)n2)cc1S(N)(=O)=O [MKP102] | IC50 (HCC827 cells): 197 nM
– | 35 | > 3000 | CN(c1ccc2[nH]ccc2c1)c1cc(Nc2ccc(N3CCOCC3)cc2)ncn1 [MKP119] | –
– | 10 | 32 | c1nc(Nc2ccc(N3CCOCC3)cc2)cc(Oc2ccc3[nH]ccc3c2)n1 [MKP120] | –
– | 7 | 1200 | c1nc(Nc2ccc(N3CCOCC3)cc2)cc(Nc2ccc3[nH]ccc3c2)n1 [MKP118] | –
– | – | – | Cc1ccc(Nc2nccc(N(C)c3ccc4c(C)n(C)nc4c3)n2)cc1S(N)(=O)=O [Pazopanib, 5-[[4-[(2,3-dimethyl-2H-indazol-6-yl)methylamino]-2-pyrimidinyl]amino]-2-methyl-benzenesulfonamide, reference compound] | EGFR inhibition (in words) (EGFR): did not inhibit EGFR; also recorded: no inhibitory effect against EGFR; Cytotoxicity in HUVECs (HUVECs [1]; 1 μg/mL): No cytotoxicity was observed; Cytotoxicity in HUVECs (HUVECs [1]; 5 and 10 μg/mL): significant endothelial cytotoxicity; Effect on VEGF-induced increase in tube formation (HUVECs [2]): significantly inhibited
20 ± 4 | – | – | Cc1ccc(Nc2nccc(N(C)c3ccc4c(ccn4C)c3)n2)cc1S(N)(=O)=O [MKP104] | IC50 (HCC827 cells): 2680 nM
– | 200 | 26 | CN(c1ccc2[nH]ccc2c1)c1ccnc(Nc2ccc(OCCCCN3CCOCC3)cc2)n1 [MKP108] | –
– | 1630 | 30 | Fc1cc(Nc2nccc(Nc3ccc4[nH]ccc4c3)n2)ccc1N1CCOCC1 [MKP113] | –
– | 33 | 17 | COc1cc(Nc2nccc(N(C)c3ccc4[nH]ccc4c3)n2)cc(N2CCOCC2)c1 [MKP117] | –
42 ± 4 | – | – | Cc1cc2cc(N(C)c3ccnc(Nc4ccc(C)c(S(N)(=O)=O)c4)n3)ccc2[nH]1 [MKP103] | IC50 (HCC827 cells): 1630 nM
– | 610 | 41 | Fc1cc(Nc2nccc(Nc3ccc4[nH]ccc4c3)n2)cc(N2CCOCC2)c1 [MKP114] | –
